Laboratory results: US6743892B1, “Molecules that home to a selected organ in vivo” (La Jolla Cancer Research Foundation, priority 1995, dated 2004)
Bridge positions count the residues as written; N and C are the ends. Ends that are not written are not given here.

What was measured:
[1] = tested on: brain; test: 125I-peptide/RBC complex homing to brain and kidney, with or without unlabeled peptide; type: in vivo, mouse; settings: 10 mM unlabeled peptide coadministered
Description: The synthetic cyclic CLSSRLDAC (SEQ ID NO: 3) peptide (1 mg) was labeled with iodine-125 using the Bolton and Hunter reagent (Amersham; Arlington Heights Ill.). Labeled peptide was purified by reverse phase HPLC on Sep-Pak™ cartridges (Waters, Millipore Corp.; Milford Pa.) and the ^125I-peptide (200 μg) was coupled to 1 ml glutaraldehyde-stabilized sheep RBC (Sigma Chemical Co.; St. Louis Mo.) according to the manufacturer's instructions.
After 2 min, each mouse was perfused through the heart with 50 ml DMEM and the brain and kidney were removed and assayed for radioactivity.
Approximately twice as much of the CLSSRLDAC/RBC complex (SEQ ID NO: 3) homed to brain than to kidney. […] Coadministration of unlabeled CVRLNSLAC (SEQ ID NO: 43) had no effect on selective homing of the complex to brain and no effect on the non-specific localization of the complex in the kidney.

[2] = tested on: brain; test: Brain homing activity (test not described); settings: in vivo
[3] = tested on: brain; test: Peptide competition of phage homing to brain; type: in vivo, mice; settings: 100 μg synthetic cyclic peptide injected with 1×10^8 TU phage
Description: In order to confirm the specificity of a peptide for directing homing to a selected organ, peptide competition experiments were performed. The cyclic peptide, CLSSRLDAC (SEQ ID NO: 3), which is one of the brain homing peptides (see Table 1) was synthesized (Immunodynamics; La Jolla Calif.) and purified by HPLC. The effect on the homing of phage expressing CLSSRLDAC (SEQ ID NO: 3), CENWWGDVC (SEQ ID NO: 2) or […] (SEQ ID NO: 16) to the brain was examined in order to determine whether co-administration of the synthetic peptide affected homing of the phage.
Phage expressing CLSSRLDAC (SEQ ID NO: 3), CENWWGDVC (SEQ ID NO: 2) or […] (SEQ ID NO: 16) were titrated to the same concentration and 1×10^8 TU was injected into mice alone, or with 100 μg purified synthetic cyclic CLSSRLDAC (SEQ ID NO: 3) peptide. The synthetic CLSSRLDAC (SEQ ID NO: 3) peptide inhibited the homing of phage expressing CLSSRLDAC (SEQ ID NO: 3) by about 60%.

Sequence | effect of coadministration on brain homing of the CLSSRLDAC/RBC complex [1] | effect of coadministration on localization of the CLSSRLDAC/RBC complex in the kidney [1] | brain homing activity [2] | effect on homing to brain of CENWWGDVC phage [3] | inhibition of homing to brain of phage expressing CLSSRLDAC [3]
CVRLNSLAC [reference compound] | no effect | no effect | no brain homing activity |  | 
CLSSRLDAC (disulfide 1-9 (inferred)) | essentially completely inhibited | no effect |  | did not affect | about 60%
